{"source": "the supplement of paper PMC9663587", "key": {"YKL-5-124": {"compound": "C=CC(=O)Nc1ccc(C(=O)Nc2[nH]nc3c2CN(C(=O)N[C@H](CN(C)C)c2ccccc2)C3(C)C)cc1 [YKL-5-124]", "test": "GR value, 72 h; higher = faster growth (1 = untreated, <0 = killing);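 further: breast cancer and non-malignant breast epithelial lines, nine half-log doses, viable cells counted by Hoechst and LIVE/DEAD dye imaging versus time-zero plates and DMSO controls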"}, "Flavopiridol [1]": {"compound": "T1, CN1CC[C@H](c2c(O)cc(O)c3c(=O)cc(-c4ccccc4Cl)oc23)[C@H](O)C1 [Flavopiridol]", "test": "GR value, 72 h; higher = faster growth (1 = untreated, <0 = killing)"}, "THZ531": {"compound": "CN(C)C/C=C/C(=O)Nc1ccc(C(=O)N2CCC[C@@H](Nc3ncc(Cl)c(-c4c[nH]c5ccccc45)n3)C2)cc1 [THZ531]", "test": "GR value, 72 h; higher = faster growth (1 = untreated, <0 = killing)"}, "LEE011/Ribociclib": {"compound": "CN(C)C(=O)c1cc2cnc(Nc3ccc(N4CCNCC4)cn3)nc2n1C1CCCC1 [LEE011/Ribociclib]", "test": "GR value, 72 h; higher = faster growth (1 = untreated, <0 = killing)"}, "BSJ-03-123": {"compound": "CC(=O)c1c(C)c2cnc(Nc3ccc(N4CCN(CCOCCOCCOCCNC(=O)COc5cccc6c5C(=O)N(C5CCC(=O)NC5=O)C6=O)CC4)cn3)nc2n(C2CCCC2)c1=O [BSJ-03-123]", "test": "GR value, 72 h; higher = faster growth (1 = untreated, <0 = killing)"}, "Flavopiridol [2]": {"compound": "T1, Flavopiridol"}, "BSJ-01-175": {"compound": "CN(C)C/C=C/C(=O)Nc1ccc(O[C@@H]2CCC[C@@H](Nc3ncc(Cl)c(-c4c[nH]c5ccccc45)n3)C2)cc1 [BSJ-01-175]"}}, "data": [{"cell line": "PDX1206", "values": [{"measurement": "GR value", "setting": "YKL-5-124; 0.001 µM", "value": 0.821, "unit": "GR"}, {"measurement": "GR value", "setting": "YKL-5-124; 0.003162 µM", "value": 0.683, "unit": "GR"}, {"measurement": "GR value", "setting": "YKL-5-124; 0.01 µM", "value": 0.588, "unit": "GR"}, {"measurement": "GR value", "setting": "YKL-5-124; 0.03162 µM", "value": 0.519, "unit": "GR"}, {"measurement": "GR value", "setting": "YKL-5-124; 0.1 µM", "value": 0.461, "unit": "GR"}, {"measurement": "GR value", "setting": "YKL-5-124; 0.3162 µM", "value": 0.444, "unit": "GR"}, {"measurement": "GR value", "setting": "YKL-5-124; 1 µM", "value": 0.323, "unit": "GR"}, {"measurement": "GR value", "setting": "YKL-5-124; 3.162 µM", "value": 0.205, "unit": "GR"}, {"measurement": "GR value", "setting": "YKL-5-124; 10 µM", "value": -0.502, "unit": "GR"}, {"measurement": "GR value", "setting": "Flavopiridol [1]; 0.0001 µM", "value": 1.09, "unit": "GR"}, {"measurement": "GR value", "setting": "Flavopiridol [1]; 0.0003162 µM", "value": 0.867, "unit": "GR"}, {"measurement": "GR value", "setting": "Flavopiridol [1]; 0.001 µM", "value": 0.803, "unit": "GR"}, {"measurement": "GR value", "setting": "Flavopiridol [1]; 0.003162 µM", "value": 0.812, "unit": "GR"}, {"measurement": "GR value", "setting": "Flavopiridol [1]; 0.01 µM", "value": 1.03, "unit": "GR"}, {"measurement": "GR value", "setting": "Flavopiridol [1]; 0.03162 µM", "value": 0.485, "unit": "GR"}, {"measurement": "GR value", "setting": "Flavopiridol [1]; 0.1 µM", "value": 0.393, "unit": "GR"}, {"measurement": "GR value", "setting": "Flavopiridol [1]; 0.3162 µM", "value": -0.402, "unit": "GR"}, {"measurement": "GR value", "setting": "Flavopiridol [1]; 1 µM", "value": -0.571, "unit": "GR"}, {"measurement": "GR value", "setting": "THZ531; 0.0001 µM", "value": 1.14, "unit": "GR"}, {"measurement": "GR value", "setting": "THZ531; 0.0003162 µM", "value": 0.992, "unit": "GR"}, {"measurement": "GR value", "setting": "THZ531; 0.001 µM", "value": 1.01, "unit": "GR"}, {"measurement": "GR value", "setting": "THZ531; 0.003162 µM", "value": 1.05, "unit": "GR"}, {"measurement": "GR value", "setting": "THZ531; 0.01 µM", "value": 1.02, "unit": "GR"}, {"measurement": "GR value", "setting": "THZ531; 0.03162 µM", "value": 0.9, "unit": "GR"}, {"measurement": "GR value", "setting": "THZ531; 0.1 µM", "value": -0.371, "unit": "GR"}, {"measurement": "GR value", "setting": "THZ531; 0.3162 µM", "value": -0.273, "unit": "GR"}, {"measurement": "GR value", "setting": "THZ531; 1 µM", "value": -0.29, "unit": "GR"}, {"measurement": "GR value", "setting": "LEE011/Ribociclib; 0.001 µM", "value": 0.899, "unit": "GR"}, {"measurement": "GR value", "setting": "LEE011/Ribociclib; 0.003162 µM", "value": 0.915, "unit": "GR"}, {"measurement": "GR value", "setting": "LEE011/Ribociclib; 0.01 µM", "value": 0.885, "unit": "GR"}, {"measurement": "GR value", "setting": "LEE011/Ribociclib; 0.03162 µM", "value": 0.915, "unit": "GR"}, {"measurement": "GR value", "setting": "LEE011/Ribociclib; 0.1 µM", "value": 0.758, "unit": "GR"}, {"measurement": "GR value", "setting": "LEE011/Ribociclib; 0.3162 µM", "value": 0.817, "unit": "GR"}, {"measurement": "GR value", "setting": "LEE011/Ribociclib; 1 µM", "value": 0.998, "unit": "GR"}, {"measurement": "GR value", "setting": "LEE011/Ribociclib; 3.162 µM", "value": 0.753, "unit": "GR"}, {"measurement": "GR value", "setting": "LEE011/Ribociclib; 10 µM", "value": 0.685, "unit": "GR"}, {"measurement": "GR value", "setting": "BSJ-03-123; 0.001 µM", "value": 1.02, "unit": "GR"}, {"measurement": "GR value", "setting": "BSJ-03-123; 0.003162 µM", "value": 0.915, "unit": "GR"}, {"measurement": "GR value", "setting": "BSJ-03-123; 0.01 µM", "value": 0.885, "unit": "GR"}, {"measurement": "GR value", "setting": "BSJ-03-123; 0.03162 µM", "value": 0.967, "unit": "GR"}, {"measurement": "GR value", "setting": "BSJ-03-123; 0.1 µM", "value": 0.904, "unit": "GR"}, {"measurement": "GR value", "setting": "BSJ-03-123; 0.3162 µM", "value": 0.912, "unit": "GR"}, {"measurement": "GR value", "setting": "BSJ-03-123; 1 µM", "value": 0.782, "unit": "GR"}, {"measurement": "GR value", "setting": "BSJ-03-123; 3.162 µM", "value": 0.726, "unit": "GR"}, {"measurement": "GR value", "setting": "BSJ-03-123; 10 µM", "value": -0.109, "unit": "GR"}, {"measurement": "GR50, 72 h", "setting": "Flavopiridol [2]", "value": 0.0514, "unit": "µM"}, {"measurement": "GR50, 72 h", "setting": "BSJ-01-175", "value": 0.0192, "unit": "µM"}]}, {"cell line": "MCF10A (GM)", "values": [{"measurement": "GR value", "setting": "YKL-5-124; 0.001 µM", "value": 0.327, "unit": "GR"}, {"measurement": "GR value", "setting": "YKL-5-124; 0.003162 µM", "value": 0.118, "unit": "GR"}, {"measurement": "GR value", "setting": "YKL-5-124; 0.01 µM", "value": 0.0291, "unit": "GR"}, {"measurement": "GR value", "setting": "YKL-5-124; 0.03162 µM", "value": 0.0039, "unit": "GR"}, {"measurement": "GR value", "setting": "YKL-5-124; 0.1 µM", "value": 0.0039, "unit": "GR"}, {"measurement": "GR value", "setting": "YKL-5-124; 0.3162 µM", "value": -0.0162, "unit": "GR"}, {"measurement": "GR value", "setting": "YKL-5-124; 1 µM", "value": -0.0398, "unit": "GR"}, {"measurement": "GR value", "setting": "YKL-5-124; 3.162 µM", "value": -0.0468, "unit": "GR"}, {"measurement": "GR value", "setting": "YKL-5-124; 10 µM", "value": -0.141, "unit": "GR"}, {"measurement": "GR value", "setting": "Flavopiridol [1]; 0.0001 µM", "value": 1, "unit": "GR"}, {"measurement": "GR value", "setting": "Flavopiridol [1]; 0.0003162 µM", "value": 1.01, "unit": "GR"}, {"measurement": "GR value", "setting": "Flavopiridol [1]; 0.001 µM", "value": 1.01, "unit": "GR"}, {"measurement": "GR value", "setting": "Flavopiridol [1]; 0.003162 µM", "value": 0.996, "unit": "GR"}, {"measurement": "GR value", "setting": "Flavopiridol [1]; 0.01 µM", "value": 0.962, "unit": "GR"}, {"measurement": "GR value", "setting": "Flavopiridol [1]; 0.03162 µM", "value": 0.842, "unit": "GR"}, {"measurement": "GR value", "setting": "Flavopiridol [1]; 0.1 µM", "value": 0.557, "unit": "GR"}, {"measurement": "GR value", "setting": "Flavopiridol [1]; 0.3162 µM", "value": -0.244, "unit": "GR"}, {"measurement": "GR value", "setting": "Flavopiridol [1]; 1 µM", "value": -0.319, "unit": "GR"}, {"measurement": "GR value", "setting": "THZ531; 0.0001 µM", "value": 1, "unit": "GR"}, {"measurement": "GR value", "setting": "THZ531; 0.0003162 µM", "value": 1, "unit": "GR"}, {"measurement": "GR value", "setting": "THZ531; 0.001 µM", "value": 0.992, "unit": "GR"}, {"measurement": "GR value", "setting": "THZ531; 0.003162 µM", "value": 0.983, "unit": "GR"}, {"measurement": "GR value", "setting": "THZ531; 0.01 µM", "value": 0.997, "unit": "GR"}, {"measurement": "GR value", "setting": "THZ531; 0.03162 µM", "value": 0.974, "unit": "GR"}, {"measurement": "GR value", "setting": "THZ531; 0.1 µM", "value": 0.926, "unit": "GR"}, {"measurement": "GR value", "setting": "THZ531; 0.3162 µM", "value": 0.707, "unit": "GR"}, {"measurement": "GR value", "setting": "THZ531; 1 µM", "value": -0.276, "unit": "GR"}, {"measurement": "GR value", "setting": "LEE011/Ribociclib; 0.001 µM", "value": 0.925, "unit": "GR"}, {"measurement": "GR value", "setting": "LEE011/Ribociclib; 0.003162 µM", "value": 0.95, "unit": "GR"}, {"measurement": "GR value", "setting": "LEE011/Ribociclib; 0.01 µM", "value": 0.906, "unit": "GR"}, {"measurement": "GR value", "setting": "LEE011/Ribociclib; 0.03162 µM", "value": 0.892, "unit": "GR"}, {"measurement": "GR value", "setting": "LEE011/Ribociclib; 0.1 µM", "value": 0.859, "unit": "GR"}, {"measurement": "GR value", "setting": "LEE011/Ribociclib; 0.3162 µM", "value": 0.823, "unit": "GR"}, {"measurement": "GR value", "setting": "LEE011/Ribociclib; 1 µM", "value": 0.808, "unit": "GR"}, {"measurement": "GR value", "setting": "LEE011/Ribociclib; 3.162 µM", "value": 0.736, "unit": "GR"}, {"measurement": "GR value", "setting": "LEE011/Ribociclib; 10 µM", "value": 0.525, "unit": "GR"}, {"measurement": "GR value", "setting": "BSJ-03-123; 0.001 µM", "value": 0.904, "unit": "GR"}, {"measurement": "GR value", "setting": "BSJ-03-123; 0.003162 µM", "value": 0.952, "unit": "GR"}, {"measurement": "GR value", "setting": "BSJ-03-123; 0.01 µM", "value": 0.879, "unit": "GR"}, {"measurement": "GR value", "setting": "BSJ-03-123; 0.03162 µM", "value": 0.859, "unit": "GR"}, {"measurement": "GR value", "setting": "BSJ-03-123; 0.1 µM", "value": 0.884, "unit": "GR"}, {"measurement": "GR value", "setting": "BSJ-03-123; 0.3162 µM", "value": 0.795, "unit": "GR"}, {"measurement": "GR value", "setting": "BSJ-03-123; 1 µM", "value": 0.658, "unit": "GR"}, {"measurement": "GR value", "setting": "BSJ-03-123; 3.162 µM", "value": 0.549, "unit": "GR"}, {"measurement": "GR value", "setting": "BSJ-03-123; 10 µM", "value": -0.17, "unit": "GR"}, {"measurement": "GR50, 72 h", "setting": "Flavopiridol [2]", "value": 0.101, "unit": "µM"}, {"measurement": "GR50, 72 h", "setting": "BSJ-01-175", "value": 1.17, "unit": "µM"}]}]}
